Results taken from the NIST ThermoML archive (doi:10.1021/je700644s).

Key:
[1] = molar heat capacity at constant pressure; settings: 101.33 kPa, Crystal
[2] = Crystal; visual observation

N[C@@H](Cc1ccc(O)c(O)c1)C(=O)O [L-3,4-dihydroxyphenylalanine]
[1]
Settings	molar heat capacity at constant pressure [J/K/mol]
78.47 K	71.34
79.83 K	72.35
81.49 K	73.75
83 K	75.18
84.82 K	76.68
86.63 K	78.19
88.44 K	79.6
89.94 K	80.73
91.35 K	82.27
93.06 K	83.62
94.81 K	84.79
97.14 K	86.2
98.89 K	87.89
100.72 K	89.28
102.64 K	90.78
104.71 K	92.24
106.74 K	93.97
108.74 K	95.89
110.71 K	97.8
112.66 K	99.36
114.58 K	101.07
116.47 K	103
118.5 K	104.72
120.65 K	106.43
122.77 K	108.44
124.86 K	110.39
126.96 K	112.16
129.01 K	113.95
131.02 K	115.5
133.03 K	117.12
135.03 K	118.6
136.99 K	120.14
138.96 K	121.84
140.87 K	123.73
142.78 K	125.45
144.7 K	127.02
146.71 K	128.82
148.67 K	130.53
150.67 K	132.25
152.73 K	133.85
154.83 K	135.87
156.88 K	137.96
158.94 K	139.53
160.94 K	141.56
162.95 K	143.5
164.96 K	144.99
166.92 K	146.4
168.93 K	148.17
170.89 K	150.21
172.8 K	151.86
174.76 K	153.4
176.68 K	155.02
178.59 K	156.36
180.49 K	157.89
182.37 K	159.54
184.4 K	161.1
186.39 K	162.67
188.35 K	164.31
190.45 K	165.92
192.51 K	167.41
194.57 K	169.47
196.6 K	171.19
198.74 K	173.02
200.73 K	174.55
202.72 K	176.35
204.75 K	178.18
206.74 K	179.9
208.73 K	181.7
210.72 K	183.49
212.57 K	185.1
214.57 K	186.74
216.49 K	188.38
218.41 K	190.07
220.37 K	191.82
222.25 K	193.7
224.06 K	195.34
226.73 K	197.52
229.58 K	199.77
232.56 K	202.63
235.59 K	205.29
238.77 K	207.95
241.76 K	210.58
244.74 K	212.99
247.73 K	215.37
250.77 K	218.1
253.75 K	220.62
256.74 K	223
259.76 K	225.81
262.77 K	228.18
265.75 K	230.91
268.6 K	233.5
271.68 K	236.23
274.76 K	239.03
277.82 K	242.01
280.88 K	244.64
283.92 K	247.23
286.95 K	249.5
289.94 K	252.13
292.92 K	255.42
295.76 K	258.06
298.79 K	261
301.77 K	263.53
304.66 K	266.35
307.79 K	269.29
310.97 K	272.35
313.95 K	275.23
317.08 K	278.06
320.26 K	281.06
323.2 K	284.12
325.79 K	286.4
328.38 K	288.56
331.07 K	291.45
333.76 K	293.85
336.37 K	296.31
338.98 K	299.04
341.74 K	301.82
344.65 K	304.77
347.41 K	307.5
350.17 K	309.96
352.94 K	312.58
355.85 K	315.2
358.46 K	317.71
361.22 K	320.33
363.98 K	323.17
366.59 K	325.79
369.35 K	328.08
372.11 K	330.75
374.87 K	333.1
377.49 K	335.94
380.09 K	338.83
382.85 K	341.72
385.61 K	344.62
388.83 K	347.29
391.44 K	350.03
394.35 K	352.91
396.81 K	355.28
399.26 K	357.83

Settings	Normal melting temperature [°C]
[2]	277.00
